Measured values as given in patent US20150105252A1, “SUBSTITUTED PYRAZOLES AS HERBICIDES” (E I DU PONT DE NEMOURS AND COMPANY, priority 2013, published 2015).

Assays:
[1] = system: bluegrass; test: Test D postemergence; type: in vivo, Poa annua; conditions: scale 0 to 100; for Plant response rating, Bluegrass: 16 g ai/ha
Text: (§1) Seeds of plant species selected from bluegrass (annual bluegrass, Poa annua), blackgrass (Alopecurus myosuroides), canarygrass (littleseed canarygrass, Phalaris minor), chickweed (common chickweed, Stellaria media), galium (catchweed bedstraw, Galium aparine), bromegrass, downy (downy bromegrass, Bromus tectorum), field poppy (Papaver rhoeas), field violet (Viola arvensis), foxtail, green (green foxtail, Setaria viridis), deadnettle (henbit deadnettle, Lamium amplexicaule), ryegrass, Italian (Italian ryegrass, Lolium multiflorum), kochia (Kochia scoparia), lambsquarters (Chenopodium album), oilseed rape (Brassica napus), pigweed (redroot pigweed, Amaranthus retroflexus), chamomile (scentless chamomile, Matricaria inodora), speedwell (bird's-eye speedwell, Veronica persica), barley, spring (spring barley, Hordeum vulgare), wheat, spring (spring wheat, Triticum aestivum), buckwheat, wild (wild buckwheat, Polygonum convolvulus), mustard, wild (wild mustard, Sinapis arvensis), oat, wild (wild oat, Avena fatua), radish, wild (wild radish, Raphanus raphanistrum), windgrass (Apera spica-venti), Russian thistle (Salsola kali), barley, winter (winter barley, Hordeum vulgare), and wheat, winter (winter wheat, Triticum aestivum) were planted into a silt loam soil and treated preemergence with test chemicals formulated in a non-phytotoxic solvent mixture which included a surfactant.
(§2) At the same time, these species were planted in pots containing Redi-Earth® planting medium (Scotts Company, 14111 Scottslawn Road, Marysville, Ohio 43041) comprising spaghnum peat moss, vermiculite, wetting agent and starter nutrients and treated with postemergence applications of the test chemicals formulated in the same manner. Plants ranged in height from 2 to 18 cm (1- to 4-leaf stage). Treated plants and controls were maintained in a controlled growth environment for 14 to 21 days after which time all species were compared to controls and visually evaluated. Plant response ratings, summarized in Table D, are based on a scale of 0 to 100 where 0 is no effect and 100 is complete control. A dash (-) response means no test result.

[2] = system: oilseed rape; test: Test D postemergence; type: in vivo, Brassica napus; conditions: scale 0 to 100; for Plant response rating, Oilseed Rape: 16 g ai/ha
Text: as §1, §2

[3] = system: bromegrass, downy; test: Test D preemergence; type: in vivo, Bromus tectorum; conditions: for Plant response rating (scale 0 to 100), Bromegrass, Downy: 16 g ai/ha, taken as preemergence; for Plant response rating, Bromegrass, Downy: Preemergence, scale 0 to 100
Text: as §1, §2

[4] = system: lambsquarters; test: Test D postemergence; type: in vivo, Chenopodium album; conditions: scale 0 to 100; for Plant response rating, Lambsquarters: 16 g ai/ha
Text: as §1, §2

[5] = system: pigweed; test: Test D postemergence; type: in vivo, Amaranthus retroflexus; conditions: scale 0 to 100; for Plant response rating, Pigweed: 16 g ai/ha
Text: as §1, §2

[6] = system: ryegrass, Italian; test: Test D preemergence; type: in vivo, Lolium multiflorum; conditions: for Plant response rating (scale 0 to 100), Ryegrass, Italian: 16 g ai/ha, taken as preemergence; for Plant response rating, Ryegrass, Italian: Preemergence, scale 0 to 100
Text: as §1, §2

[7] = system: buckwheat, wild; test: Test D preemergence; type: in vivo, Polygonum convolvulus; conditions: for Plant response rating (scale 0 to 100), Buckwheat, Wild: 16 g ai/ha, taken as preemergence; for Plant response rating, Buckwheat, Wild: Preemergence, scale 0 to 100
Text: as §1, §2

[8] = system: oat, wild; test: Test D postemergence; type: in vivo, Avena fatua; conditions: scale 0 to 100; for Plant response rating, Oat, Wild: 16 g ai/ha
Text: as §1, §2

[9] = system: field poppy; test: Test D postemergence; type: in vivo, Papaver rhoeas; conditions: scale 0 to 100; for Plant response rating, Field Poppy: 16 g ai/ha
Text: as §1, §2

[10] = system: lambsquarters; test: Test D preemergence; type: in vivo, Chenopodium album; conditions: for Plant response rating (scale 0 to 100), Lambsquarters: 16 g ai/ha, taken as preemergence; for Plant response rating, Lambsquarters: Preemergence, scale 0 to 100
Text: as §1, §2

[11] = system: canarygrass; test: Test D postemergence; type: in vivo, Phalaris minor; conditions: scale 0 to 100; for Plant response rating, Canarygrass: 16 g ai/ha
Text: as §1, §2

## Cc1cc(C(=O)NCC(F)(F)F)nn1Cc1ccnc(C(F)(F)F)c1 [Compound 74]
[1]; Postemergence
  Plant response rating, Bluegrass: 5
[1]; Postemergence, 31 g ai/ha
  Bluegrass plant response rating: 5
[1]; Postemergence, 125 g ai/ha
  Bluegrass plant response rating: 5
[1]; postemergence, 62 g ai/ha
  Bluegrass plant response rating: 5
[2]; Postemergence
  Plant response rating, Oilseed Rape: 15
[2]; Postemergence, 31 g ai/ha
  Oilseed Rape plant response rating: 20
[2]; Postemergence, 125 g ai/ha
  Oilseed Rape plant response rating: 35
[2]; postemergence, 62 g ai/ha
  Oilseed Rape plant response rating: 25
[3]
  Plant response rating (scale 0 to 100), Bromegrass, Downy: 0
[3]; 31 g ai/ha
  Plant response rating, Bromegrass, Downy: 0
[3]; 62 g ai/ha
  Plant response rating, Bromegrass, Downy: 5
[3]; 125 g ai/ha
  Plant response rating, Bromegrass, Downy: 0
[4]; Postemergence
  Plant response rating, Lambsquarters: 70
[4]; Postemergence, 31 g ai/ha
  Lambsquarters plant response rating: 70
[4]; Postemergence, 125 g ai/ha
  Lambsquarters plant response rating: 85
[4]; postemergence, 62 g ai/ha
  Lambsquarters plant response rating: 75
[5]; Postemergence
  Plant response rating, Pigweed: 65
[5]; Postemergence, 31 g ai/ha
  Pigweed plant response rating: 50
[5]; Postemergence, 125 g ai/ha
  Pigweed plant response rating: 65
[5]; postemergence, 62 g ai/ha
  Pigweed plant response rating: 65
[6]
  Plant response rating (scale 0 to 100), Ryegrass, Italian: 0
[6]; 31 g ai/ha
  Plant response rating, Ryegrass, Italian: 0
[6]; 62 g ai/ha
  Plant response rating, Ryegrass, Italian: 0
[6]; 125 g ai/ha
  Plant response rating, Ryegrass, Italian: 0
[7]
  Plant response rating (scale 0 to 100), Buckwheat, Wild: 25
[7]; 31 g ai/ha
  Plant response rating, Buckwheat, Wild: 35
[7]; 62 g ai/ha
  Plant response rating, Buckwheat, Wild: 45
[7]; 125 g ai/ha
  Plant response rating, Buckwheat, Wild: 65
[8]; Postemergence
  Plant response rating, Oat, Wild: 0
[8]; Postemergence, 31 g ai/ha
  Oat, Wild plant response rating: 5
[8]; Postemergence, 125 g ai/ha
  Oat, Wild plant response rating: 5
[8]; postemergence, 62 g ai/ha
  Oat, Wild plant response rating: 5
[9]; Postemergence
  Plant response rating, Field Poppy: 10
[9]; Postemergence, 31 g ai/ha
  Field Poppy plant response rating: 75
[9]; Postemergence, 125 g ai/ha
  Field Poppy plant response rating: 20
[9]; postemergence, 62 g ai/ha
  Field Poppy plant response rating: 30
[10]
  Plant response rating (scale 0 to 100), Lambsquarters: 20
[10]; 31 g ai/ha
  Plant response rating, Lambsquarters: 50
[10]; 62 g ai/ha
  Plant response rating, Lambsquarters: 20
[10]; 125 g ai/ha
  Plant response rating, Lambsquarters: 85
[11]; Postemergence
  Plant response rating, Canarygrass: 0
[11]; Postemergence, 31 g ai/ha
  Canarygrass plant response rating: 0
[11]; Postemergence, 125 g ai/ha
  Canarygrass plant response rating: 0
[11]; postemergence, 62 g ai/ha
  Canarygrass plant response rating: 0

## CCc1cc(C(=O)NC2CC2)nn1Cc1ccnc(C(F)(F)F)c1 [Compound 76]
[1]; Postemergence
  Plant response rating, Bluegrass: 5
[1]; Postemergence, 31 g ai/ha
  Bluegrass plant response rating: 5
[1]; Postemergence, 125 g ai/ha
  Bluegrass plant response rating: 20
[1]; Postemergence, 250 g ai/ha
  Bluegrass plant response rating: 20
[1]; postemergence, 62 g ai/ha
  Bluegrass plant response rating: 10
[2]; Postemergence
  Plant response rating, Oilseed Rape: 10
[2]; Postemergence, 31 g ai/ha
  Oilseed Rape plant response rating: 15
[2]; Postemergence, 125 g ai/ha
  Oilseed Rape plant response rating: 50
[2]; Postemergence, 250 g ai/ha
  Oilseed Rape plant response rating: 70
[2]; postemergence, 62 g ai/ha
  Oilseed Rape plant response rating: 20
[3]
  Plant response rating (scale 0 to 100), Bromegrass, Downy: 0
[3]; 31 g ai/ha
  Plant response rating, Bromegrass, Downy: 0
[3]; 62 g ai/ha
  Plant response rating, Bromegrass, Downy: 0
[3]; 125 g ai/ha
  Plant response rating, Bromegrass, Downy: 5
[3]; 250 g ai/ha
  Plant response rating, Bromegrass, Downy: 65
[4]; Postemergence
  Plant response rating, Lambsquarters: 65
[4]; Postemergence, 31 g ai/ha
  Lambsquarters plant response rating: 70
[4]; Postemergence, 125 g ai/ha
  Lambsquarters plant response rating: 95
[4]; Postemergence, 250 g ai/ha
  Lambsquarters plant response rating: 100
[4]; postemergence, 62 g ai/ha
  Lambsquarters plant response rating: 75
[5]; Postemergence
  Plant response rating, Pigweed: 50
[5]; Postemergence, 31 g ai/ha
  Pigweed plant response rating: 55
[5]; Postemergence, 125 g ai/ha
  Pigweed plant response rating: 80
[5]; Postemergence, 250 g ai/ha
  Pigweed plant response rating: 80
[5]; postemergence, 62 g ai/ha
  Pigweed plant response rating: 65
[6]
  Plant response rating (scale 0 to 100), Ryegrass, Italian: 0
[6]; 31 g ai/ha
  Plant response rating, Ryegrass, Italian: 0
[6]; 62 g ai/ha
  Plant response rating, Ryegrass, Italian: 15
[6]; 125 g ai/ha
  Plant response rating, Ryegrass, Italian: 65
[6]; 250 g ai/ha
  Plant response rating, Ryegrass, Italian: 95
[7]
  Plant response rating (scale 0 to 100), Buckwheat, Wild: 0
[7]; 31 g ai/ha
  Plant response rating, Buckwheat, Wild: 20
[7]; 62 g ai/ha
  Plant response rating, Buckwheat, Wild: 70
[7]; 125 g ai/ha
  Plant response rating, Buckwheat, Wild: 100
[7]; 250 g ai/ha
  Plant response rating, Buckwheat, Wild: 100
[8]; Postemergence
  Plant response rating, Oat, Wild: 5
[8]; Postemergence, 31 g ai/ha
  Oat, Wild plant response rating: 5
[8]; Postemergence, 125 g ai/ha
  Oat, Wild plant response rating: 10
[8]; Postemergence, 250 g ai/ha
  Oat, Wild plant response rating: 15
[8]; postemergence, 62 g ai/ha
  Oat, Wild plant response rating: 10
[9]; Postemergence
  Plant response rating, Field Poppy: 60
[9]; Postemergence, 31 g ai/ha
  Field Poppy plant response rating: 65
[9]; Postemergence, 125 g ai/ha
  Field Poppy plant response rating: 85
[9]; Postemergence, 250 g ai/ha
  Field Poppy plant response rating: 90
[9]; postemergence, 62 g ai/ha
  Field Poppy plant response rating: 70
[10]
  Plant response rating (scale 0 to 100), Lambsquarters: 30
[10]; 31 g ai/ha
  Plant response rating, Lambsquarters: 70
[10]; 62 g ai/ha
  Plant response rating, Lambsquarters: 95
[10]; 125 g ai/ha
  Plant response rating, Lambsquarters: 100
[10]; 250 g ai/ha
  Plant response rating, Lambsquarters: 100
[11]; Postemergence
  Plant response rating, Canarygrass: 5
[11]; Postemergence, 31 g ai/ha
  Canarygrass plant response rating: 5
[11]; Postemergence, 125 g ai/ha
  Canarygrass plant response rating: 10
[11]; Postemergence, 250 g ai/ha
  Canarygrass plant response rating: 15
[11]; postemergence, 62 g ai/ha
  Canarygrass plant response rating: 10
